Results as given in PMC6017214, “Rational Design of a New Class of Toll-Like Receptor 4 (TLR4) Tryptamine Related Agonists by Means of the Structure- and Ligand-Based Virtual Screening for Vaccine Adjuvant Discovery” (Molecules : A Journal of Synthetic Chemistry and Natural …, 2018).

Key:
[1] = system: CHO-K1 (Chinese hamster ovary); test: MTT cytotoxicity assay; type: cell-based; details: Cricetulus griseus, CHO-K1 cells, 24 h exposure, mean of 2–3 independent measurements, read-out: IC50 and SEM
Procedure: The toxicity was estimated on the cell cultures in order to exclude the most toxic motifs from further development and to test whether the compounds might be used in the functional cell-model of TLR4. Standard MTT assay (Sigma Aldrich, Damrstadt, Germany) was applied according to the manufacturer’s protocol on the CHO-K1 (Chinese hamster ovary, ECACC, Salisbury, UK).
The IC50 values were calculated from the control-subtracted triplicates using non-linear regression (four parameters) of GraphPad Prism 5 software (GraphPad Software, La Jolla, CA, USA). Final IC50 and SEM value was obtained as a mean of 2–3 independent measurements (see Table 3).
Standard MTT assay (Sigma Aldrich, Darmstadt, Germany) was applied according to the manufacturer’s protocol on the CHO-K1 (Chinese hamster ovary, ECACC, Salisbury, UK) in order to compare the effect of different compound within the series. The cells were cultured according to ECACC recommended conditions and seeded in a density of 8000 per well. […] Cells were exposed to the tested compounds for 24 h. Then the medium was replaced by a medium containing 10 μM of MTT and cells were allowed to produce formazan for another approximately 3 h under surveillance. Thereafter, medium with MTT was sucked out and crystals of formazan were dissolved in DMSO (100 µL). Cell viability was assessed spectrophotometrically by the amount of formazan produced. Absorbance was measured at 570 nm with 650 nm reference wavelength on Synergy HT (BioTek, Winooski, VT, USA). IC50 was then calculated from the control—subtracted triplicates using non-linear regression (four parameters) of GraphPad Prism 5 software (GraphPad Software, La Jolla, CA, USA). Final IC50 and SEM value was obtained as a mean of 2–3 independent measurements.

[2] = Stability of the solid compounds (observation); type: physicochemical; details: solid state
[3] = system: human Periferal blood mononuclear cells (PBMCs); test: Ex vivo stimulation of IL-6 production (ELISA); type: cell-based; details: 24 h; for ability to elicit IL-6 production (in words): 10 µM; for c (IL-6 production): 10 µM of each compound (MPLA 10 μM, LPS-RS 100 ng/mL), ELISA, dash = no IL-6 production found
Text: Important factor in adjuvants development is wheter the compounds are capable to elicit immune response not only on reporter cells but on real immunocompetent cels. We have chosen ex vivo study on human Periferal blood mononuclear cells (PBMCs) to evaluate the ability to produce an interleukin 6 (IL-6). […] We have collected the blood samples from healthy donors. From those blood samples we had harvested PBMCs by standard protocol using Histopaque 1077 density gradient. PBMC specimens were frozen and kept in liquid nitrogen. The cells were incubated for 24 h with 10 µM (10% of lowest cytotoxic IC50—see the Section 2.5 and Section 2.6) of each compound and the ability to elicit IL-6 production was assessed. Synthetic MPLA (MPLAs) in equimolar concentration (10 μM) was used as a positive control and LPS from Rhodobacter sphaeroides 100 ng/mL (LPS-RS) as a negative control. IL-6 production was quantified by ELISA commercial kit (Sigma Aldrich) and results were interpreted by GraphPad Prism using Nonlinear Fit of RIA data function. […] Effect on other pro-inflamatory cytokines (e.g., IL-1) was not determined in this study and will be subject of ongoing study in order to explain discrepancy among in silico, in vitro and ex vivo findings. Furthermore study evaluating the influence of compounds on Th1/Th2/Th17 bias will be needed to thoroughly assess their adjuvant and immunomodulating potential. Nevertheless, despite such necesarry and laborious tasks novel TLR4 agonists and potential vaccine adjuvants have been found.
PBMCs was obtained by standard protocol using Histopaque 1077 gradient from whole blood of healthy donors. Cells were seeded at 25,000 cells per well and incubated for 24 h with final concentration 10 µM of each compound in triplicate (n = 3). After 24 h 100 µL of supernatant was collected from each well and level of IL-6 was determined by human IL-6 ELISA kit obtained from Sigma Aldrich (Darmstadt, Germany). Absorbance was measured at 450 nm wavelength on Synergy HT (BioTek). Level of IL-6 was calculated from standard curve using RIA nonlinear plot in Graph Pad Prism 6.

[4] = molecular target: T1, hTLR4/MD2 receptor (Homo sapiens, UniProt O00206+Q9Y6Y9); test: In vitro hTLR4/MD2 activity assessment in HEK-Blue-hTLR4 reporter cells (SEAP); type: cell-based; details: 10 µM, 16 h, relative to MPLA at same concentration, n = 3
T1 construct: host or cells: HEK-Blue-hTLR4 cells
Procedure: Aliquots of 20 µL of each compound was added into the well containing 25000 HEK-Blue™-hTLR4 cells (Invivogen, Toulouse, France) and the final concentration of compound in each well was 10 µM. Each concentration was evaluated in triplicate. Synthetic MPLAs (Invivogen) of the same concentration was used as positive control, apyrogenous saline F1 (BBraun, Prague, Czech Republic) was used as negative control. Plates were incubated overnight for 16 h at 37 °C 5% CO2. After the incubation 20 μL aliquots of supernatant were collected and mixed with 200 μL of SEAP detection media (QuantiBlue™, Invivogen) and incubated for 2 h at 37 °C 5% CO2. Absorbance of the solution was measured at 630 nm and activity of each compound expressed as a percentage of an activity of the MPLA of respective concentration was determined (n = 3).

[5] = molecular target: T2, Recombinant hTRL4/MD2 complex (Homo sapiens, UniProt O00206+Q9Y6Y9); test: Surface plasmon resonance direct binding (Biacore T200)
T2 construct: purchased R&D Systems
Procedure: To shed light on the prediction capabilities of vHTPS, direct binding of the best compound from the in vitro study (17) to the hTRL4/MD2 complex was investigated through Biospecific Interaction Analysis using the SPR-based biosensor Biacore T200 (GE Healthcare, Little Chalfont, UK).
Compound 17 was further analyzed using a series of concentrations from 6.25 up to 200 μM (binary dilution).
Surface plasmon resonance (SPR) experiments methodology was adapted from experiments by Svajger et al.. The experiments were performed using a Biacore T200 (GE Healthcare, Little Chalfont, UK) instrument equipped with a Series S—CM5 sensor chip (GE Healthcare). Dulbecco’s PBS supplied with 0.05% tween 20 and DMSO was used for immobilization of the protein. Recombinant human hTLR4/MD2 (R&D Systems, Minneapolis, MN, USA) was attached to the surface of the chip by amine coupling. The surface of flow cells 1 and 2 was initially activated with a 10-min pulse of a 1:1 mixture of 0.4 M 1-ethyl-3-(3-dimethylaminopropyl)-carbodiimide hydrochloride and 0.1 M N-hydroxysuccinimide, according to manufacturer recommendations. TLR4 was diluted into 10 mM sodium acetate buffer, pH 5.5, to a final concentration of 200 μg/mL, and injected twice for 600 s over the second flow cell. Both flow cells were blocked with a 10-min pulse of 1.0 M ethanolamine pH 8.5. The final capacity level was about 8000 RU. Analysis was performad in the running buffer consisting of Dulbecco’s PBS (10 mM Na2HPO4, 2 mM KH2PO4, 137 mM NaCl, 2 mM KCl, pH 7.4) supplemented with 1% DMSO (Sigma Aldrich, Darmstadt, Germany) and […]. All of the three hits from the cell-based assays were tested at two different concentrations: 20 μM and 200 μM. Each compound was injected for 1 min at a flow-rate of 30 μL/min, and the dissociation was monitored for 30 s. Regeneration was not needed, although 30 s of buffer-flow was used to stabilize the surface after each injection. […] We used the following concentrations for titration: 0, 6.25, 12.5, 25, 50, 100 and 200 μM.

T2 sequence (O00206 24-631 limits assumed): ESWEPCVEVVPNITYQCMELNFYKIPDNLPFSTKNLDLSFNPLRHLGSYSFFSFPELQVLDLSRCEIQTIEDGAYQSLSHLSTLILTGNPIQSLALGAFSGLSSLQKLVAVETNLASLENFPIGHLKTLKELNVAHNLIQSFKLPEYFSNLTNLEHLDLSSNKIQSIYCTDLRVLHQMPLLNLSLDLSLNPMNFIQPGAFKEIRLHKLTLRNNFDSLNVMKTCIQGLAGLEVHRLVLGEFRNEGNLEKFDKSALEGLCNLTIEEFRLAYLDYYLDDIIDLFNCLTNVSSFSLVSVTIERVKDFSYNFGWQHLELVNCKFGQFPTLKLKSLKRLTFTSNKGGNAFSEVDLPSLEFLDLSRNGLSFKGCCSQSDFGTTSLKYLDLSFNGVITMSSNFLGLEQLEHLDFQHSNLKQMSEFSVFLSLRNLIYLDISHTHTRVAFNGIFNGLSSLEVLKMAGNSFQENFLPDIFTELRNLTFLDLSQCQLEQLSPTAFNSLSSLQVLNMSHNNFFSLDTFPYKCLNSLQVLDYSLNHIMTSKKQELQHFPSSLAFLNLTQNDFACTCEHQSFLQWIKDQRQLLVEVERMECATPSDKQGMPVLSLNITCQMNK
T2 sequence (Q9Y6Y9 17-160 limits assumed): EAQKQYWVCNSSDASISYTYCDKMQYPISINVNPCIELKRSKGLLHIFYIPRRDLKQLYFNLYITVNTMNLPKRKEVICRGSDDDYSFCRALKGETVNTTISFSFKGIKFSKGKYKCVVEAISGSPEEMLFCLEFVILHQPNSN
T1 sequence (O00206 24-839): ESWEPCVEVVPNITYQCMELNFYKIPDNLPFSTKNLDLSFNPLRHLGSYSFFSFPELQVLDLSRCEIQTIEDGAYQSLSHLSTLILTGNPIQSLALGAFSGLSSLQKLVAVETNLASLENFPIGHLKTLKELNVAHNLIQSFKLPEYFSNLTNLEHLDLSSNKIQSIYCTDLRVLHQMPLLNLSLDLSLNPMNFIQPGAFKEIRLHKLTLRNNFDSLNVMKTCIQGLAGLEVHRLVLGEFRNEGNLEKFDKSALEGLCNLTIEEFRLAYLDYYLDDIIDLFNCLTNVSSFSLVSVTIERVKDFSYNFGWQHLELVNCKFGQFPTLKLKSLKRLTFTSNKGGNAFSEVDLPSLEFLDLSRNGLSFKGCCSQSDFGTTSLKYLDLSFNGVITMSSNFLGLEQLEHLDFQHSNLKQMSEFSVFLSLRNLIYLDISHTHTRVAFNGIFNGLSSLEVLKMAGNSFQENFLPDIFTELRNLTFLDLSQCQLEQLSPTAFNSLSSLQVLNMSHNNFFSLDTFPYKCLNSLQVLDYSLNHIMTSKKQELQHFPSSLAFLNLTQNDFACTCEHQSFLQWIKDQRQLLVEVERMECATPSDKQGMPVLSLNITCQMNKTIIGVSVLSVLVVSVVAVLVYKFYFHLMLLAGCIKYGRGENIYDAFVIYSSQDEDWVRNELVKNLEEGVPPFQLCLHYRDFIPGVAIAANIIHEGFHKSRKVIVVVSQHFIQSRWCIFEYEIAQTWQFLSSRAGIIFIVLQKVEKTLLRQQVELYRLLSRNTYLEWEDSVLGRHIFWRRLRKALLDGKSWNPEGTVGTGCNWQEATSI
T1 sequence (Q9Y6Y9 17-160 limits assumed): as the sequence (Q9Y6Y9 17-160 limits assumed) above

Molecule	IC50 [1]	melting point	also measured
CC(C)CCC(=O)NCCc1c[nH]c2ccccc12 [Compound 25, N-(2-(1H-Indol-3-yl)ethyl)-4-methylpentanamide]	348 ± 35 µM	45.1 to 47.1 °C	stability of the compound (in words) [2]: unwanted degradations from crystals to amorphous state
Cc1ccc(C(=O)NCCc2c[nH]c3ccccc23)cc1 [Compound 15, N-(2-(1H-Indol-3-yl)ethyl)-4-methylbenzamide]	197 ± 41 µM		
O=C(NCCc1c[nH]c2ccccc12)c1ccccc1 [Compound 14, N-(2-(1H-Indol-3-yl)ethyl)benzamide]	297 ± 17 µM		ability to elicit IL-6 production (in words) [3]: significantly induce production of IL-6; c (IL-6 production) [3]: 53.501 pg/mL
O=C(NCCc1c[nH]c2ccccc12)c1ccc2c(c1)CCCC2 [Compound 23, N-(2-(1H-Indol-3-yl)ethyl)-5,6,7,8-tetrahydronaphthalene-2-carboxamide]	98 ± 6 µM	137 to 139 °C	
O=C(NCCc1c[nH]c2ccccc12)C1CCCCCC1 [Compound 24, N-(2-(1H-Indol-3-yl)ethyl)cycloheptanecarboxamide]	170 ± 10 µM	88.4 to 90.4 °C	stability of the compound (in words) [2]: unwanted degradations from crystals to amorphous state
O=C(NCCc1c[nH]c2ccccc12)c1ccc(Cl)c(Cl)c1 [Compound 18, N-(2-(1H-Indol-3-yl)ethyl)-3,4-dichlorobenzamide]	892 ± 122 µM	112.4 to 113.9 °C	
Monophosphoryl lipid A [MPLA, reference compound]			c (IL-6 production) [3]: 3078.97 pg/mL
O=C(NCCc1c[nH]c2ccccc12)c1ccc2ccccc2c1 [Compound 19, N-(2-(1H-Indol-3-yl)ethyl)-2-naphthamide]	155 ± 12 µM	193.2 to 195 °C	
O=C(NCCc1c[nH]c2ccccc12)c1ccc(Cl)cc1 [Compound 17, N-(2-(1H-Indol-3-yl)ethyl)-4-chlorobenzamide]	201 ± 8 µM		ability to elicit IL-6 production (in words) [3]: did not shown any effect; activity of MPLA (hTLR4/MD2 agonist activity normalized to MPLA) [4]: more than 20%; dissociation (SPR, in words) ([5]; 6.25 up to 200 μM): rapid dissociation rates; Kd ([5]; SPR, immobilized hTRL4/MD2, 6.25 up to 200 μM): 0.747 µM; direct binding to the hTRL4/MD2 complex (SPR, in words) ([5]; immobilized recombinant hTRL4/MD2): direct binding to the hTRL4/MD2 complex was confirmed
O=C(NCCc1c[nH]c2ccccc12)C1CCc2ccccc2C1 (stereo not drawn) [Compound 22, N-(2-(1H-Indol-3-yl)ethyl)-1,2,3,4-tetrahydronaphthalene-2-carboxamide]	128 ± 8 µM	123.2 to 125.2 °C	ability to elicit IL-6 production (in words) [3]: significantly induce production of IL-6; c (IL-6 production) [3]: 147.64 pg/mL; activity of MPLA (hTLR4/MD2 agonist activity normalized to MPLA) [4]: ~10%
COc1ccc(C(=O)NCCc2c[nH]c3ccccc23)cc1 [Compound 16, N-(2-(1H-Indol-3-yl)ethyl)-4-methoxybenzamide]	200 ± 7 µM	132.8 to 134.3 °C	
O=C(NCCc1c[nH]c2ccccc12)c1cccc2ccccc12 [Compound 21, N-(2-(1H-Indol-3-yl)ethyl)-1-naphthamide]		164.5 to 166.5 °C	
O=C(NCCc1c[nH]c2ccccc12)C1CCCCC1 [Compound 20, N-(2-(1H-Indol-3-yl)ethyl)cyclohexanecarboxamide]	211 ± 43 µM	104.8 to 106.3 °C	
